Biological target: T1, DesB (Sphingomonas paucimobilis, UniProt Q5NTE5)
T1 construct: overexpressed in E. coli, purified to near homogeneity; swapped homodimer with active sites at the subunit interface; 418 residues; Fe(II) form
T1 sequence (Q5NTE5 1-418): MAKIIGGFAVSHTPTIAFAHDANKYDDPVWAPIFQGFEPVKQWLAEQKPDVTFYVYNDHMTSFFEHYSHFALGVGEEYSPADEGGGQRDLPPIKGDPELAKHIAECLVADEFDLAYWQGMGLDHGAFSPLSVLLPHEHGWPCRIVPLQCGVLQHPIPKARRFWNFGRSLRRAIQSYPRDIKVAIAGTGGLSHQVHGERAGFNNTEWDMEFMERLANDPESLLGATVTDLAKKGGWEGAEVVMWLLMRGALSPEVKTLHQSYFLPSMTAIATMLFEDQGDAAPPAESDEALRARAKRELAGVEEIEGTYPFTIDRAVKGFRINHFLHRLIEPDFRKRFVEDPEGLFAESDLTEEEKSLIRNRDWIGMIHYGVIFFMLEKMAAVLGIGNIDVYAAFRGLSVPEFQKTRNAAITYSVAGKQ
Assay: X-ray crystal structure (soak)
Format: binding
Details: anaerobic, pH 7.75, Fe(II), active site, 2.40 A

O=C(O)c1ccc(O)c(O)c1 [PCA]
X-ray crystal structure (soak) (10 mM PCA soak, flipped non-productive binding, not turned over): bound PCA was found in the active site of the anaerobic DesB-PCA complex

O=C(O)c1cc(O)c(O)c(O)c1 [gallate]
X-ray crystal structure (soak) (10 mM gallate soak, further complexes 3WKU, 3WPM (co-crystal), 3WR3, 3WR4): gallate is bound to the active site through several hydrogen bonds
